Data published in patent US11564394B2, “Distorted gold (I)-phosphine complexes and methods for use as antifungal agents” (University of Kentucky Research Foundation, priority 2019, dated 2023).
Read-outs that look alike come from different tables or passages of the source.

How the values were obtained:
Test in all cases: MIC determination (broth microdilution)
Type in all cases: cell-based, Candida auris
Details in all cases: Candidozyma auris
[1] = tested on: C. auris AR Bank # 0386 (strain V)
[2] = tested on: C. auris AR Bank # 0384 (strain K)
[3] = tested on: C. auris AR Bank # 0385 (strain IV)
[4] = tested on: C. auris AR Bank # 0382 (strain II)
[5] = tested on: C. auris AR Bank # 0390 (strain L)
[6] = tested on: C. auris AR Bank # 0388 (strain VII)
[7] = tested on: C. auris AR Bank # 0387 (strain VI)
[8] = tested on: C. auris AR Bank # 0381 (strain I)
[9] = tested on: C. auris AR Bank # 0389 (strain VIII)
[10] = tested on: C. auris AR Bank # 0383 (strain III)
[11] = strain V = C. auris AR Bank # 0386, MIC-2, read-out: MIC (MIC-2 for azoles)
[12] = strain V = C. auris AR Bank # 0386, MIC-2, read-out: MIC (MIC-2 for azoles, in parentheses)
[13] = strain K = C. auris AR Bank # 0384, MIC-2, read-out: MIC (MIC-2 for azoles)
[14] = strain K = C. auris AR Bank # 0384, MIC-2, read-out: MIC (MIC-2 for azoles, in parentheses)
[15] = strain IV = C. auris AR Bank # 0385, MIC-2, read-out: MIC (MIC-2 for azoles)
[16] = strain IV = C. auris AR Bank # 0385, MIC-2, read-out: MIC (MIC-2 for azoles, in parentheses)
[17] = strain II = C. auris AR Bank # 0382, MIC-2, read-out: MIC (MIC-2 for azoles)
[18] = strain II = C. auris AR Bank # 0382, MIC-2, read-out: MIC (MIC-2 for azoles, in parentheses)
[19] = strain L = C. auris AR Bank # 0390, MIC-2, read-out: MIC (MIC-2 for azoles)
[20] = strain L = C. auris AR Bank # 0390, MIC-2, read-out: MIC (MIC-2 for azoles, in parentheses)
[21] = strain VII = C. auris AR Bank # 0388, MIC-2, read-out: MIC (MIC-2 for azoles)
[22] = strain VII = C. auris AR Bank # 0388, MIC-2, read-out: MIC (MIC-2 for azoles, in parentheses)
[23] = strain VI = C. auris AR Bank # 0387, MIC-2, read-out: MIC (MIC-2 for azoles)
[24] = strain VI = C. auris AR Bank # 0387, MIC-2, read-out: MIC (MIC-2 for azoles, in parentheses)
[25] = strain I = C. auris AR Bank # 0381, MIC-2, optical density at 600 nm, read-out: MIC (MIC-2 for azoles)
[26] = strain I = C. auris AR Bank # 0381, MIC-2, optical density at 600 nm, read-out: MIC (MIC-2 for azoles, in parentheses)
[27] = strain VIII = C. auris AR Bank # 0389, MIC-2, read-out: MIC (MIC-2 for azoles)
[28] = strain VIII = C. auris AR Bank # 0389, MIC-2, read-out: MIC (MIC-2 for azoles, in parentheses)

Row | MIC [1, 11] [µg/mL] | MIC [1, 12] [µM] | MIC [2, 13] [µg/mL] | MIC [2, 14] [µM] | MIC [3, 15] [µg/mL] | MIC [3, 16] [µM] | MIC [4, 17] [µg/mL] | MIC [4, 18] [µM] | MIC [5, 19] [µg/mL] | MIC [5, 20] [µM] | MIC [6, 21] [µg/mL] | MIC [6, 22] [µM] | MIC [7, 23] [µg/mL] | MIC [7, 24] [µM] | MIC [8, 25] [µg/mL] | MIC [8, 26] [µM] | MIC [9, 27] [µg/mL] | MIC [9, 28] [µM] | SMILES | further results
1 | 3.9 | 11.2 | 0.24 | 0.7 | 3.9 | 11.2 | 0.06 | 0.2 | 0.49 | 1.4 | 0.49 | 1.4 | 0.06 | 0.2 | 0.06 | 0.2 | 0.98 | 2.8 | C[C@@H](c1ncncc1F)[C@](O)(Cn1cncn1)c1ccc(F)cc1F [VRC, voriconazole] | MIC ([10]; strain III = C. auris AR Bank # 0383, MIC-2, read-out: MIC (MIC-2 for azoles)): 1.95 µg/mL; MIC ([10]; strain III = C. auris AR Bank # 0383, MIC-2, read-out: MIC (MIC-2 for azoles, in parentheses)): 5.6 µM
2 | – | – | – | – | – | – | – | – | – | – | – | – | – | – | – | – | – | – | CC[C@H](C)C[C@H](C)CCCCCCCCC(=O)N[C@H]1C[C@@H](O)[C@@H](NCCN)NC(=O)[C@@H]2[C@@H](O)CCN2C(=O)[C@H]([C@H](O)CCN)NC(=O)[C@H]([C@H](O)[C@@H](O)c2ccc(O)cc2)NC(=O)[C@@H]2C[C@@H](O)CN2C(=O)[C@H]([C@@H](C)O)NC1=O [CAS, caspofungin] | MIC [1]: 7.8 µg/mL; MIC ([1]; read-out: MIC (in parentheses)): 7.1 µM; MIC [2]: 1.95 µg/mL; MIC ([2]; read-out: MIC (in parentheses)): 1.8 µM; MIC [3]: < 0.98 µg/mL; MIC ([3]; read-out: MIC (in parentheses)): < 0.9 µM; MIC [4]: < 0.98 µg/mL; MIC ([4]; read-out: MIC (in parentheses)): < 0.9 µM; MIC [5]: 7.8 µg/mL; MIC ([5]; read-out: MIC (in parentheses)): 7.1 µM; MIC [6]: 31.3 µg/mL; MIC ([6]; read-out: MIC (in parentheses)): 28.6 µM; MIC [7]: 31.3 µg/mL; MIC ([7]; read-out: MIC (in parentheses)): 28.6 µM; MIC [8]: < 0.98 µg/mL; MIC ([8]; read-out: MIC (in parentheses)): < 0.9 µM; MIC [9]: 7.8 µg/mL; MIC ([9]; read-out: MIC (in parentheses)): 7.1 µM; MIC [10]: 1.95 µg/mL; MIC ([10]; read-out: MIC (in parentheses)): 1.8 µM
3 | > 62.5 | > 204 | 31.3 | 102 | > 62.5 | > 204 | 0.49 | 1.6 | > 62.5 | > 204 | > 62.5 | > 204 | 0.98 | 3.2 | 0.49 | 1.6 | > 62.5 | > 204 | OC(Cn1cncn1)(Cn1cncn1)c1ccc(F)cc1F [FLC, fluconazole] | –
